Assay results taken from ChEMBL document CHEMBL3091293, “The synthesis and biodistribution of [(11)C]metformin as a PET probe to study hepatobiliary transport mediated by the multi-drug and toxin extrusion transporter 1 (MATE1) in vivo” (Bioorg Med Chem, 2013).

Legend:
Assay type in all cases: ADME, organism-based
Lung [1] = test: Biodistribution in lung of ddY mouse at 5.6 +/- 2.1 MBq, iv measured per gram of tissue at 35 mins by gamma-ray counting analysis; conditions: in vivo
Kidney [2] = test: Biodistribution in kidney of ddY mouse at 5.6 +/- 2.1 MBq, iv measured per gram of tissue at 30 mins by gamma-ray counting analysis; conditions: in vivo, 0.5 h
Mus musculus [3] = test: Biodistribution in large intestine wall of ddY mouse at 5.6 +/- 2.1 MBq, iv measured per gram of tissue at 15 mins by gamma-ray counting analysis; conditions: in vivo, 0.25 h
Mus musculus [4] = test: Biodistribution in heart wall of ddY mouse at 5.6 +/- 2.1 MBq, iv measured per gram of tissue at 15 mins by gamma-ray counting analysis; conditions: in vivo, 0.25 h
Liver [5] = test: Biodistribution in liver of ddY mouse at 5.6 +/- 2.1 MBq, iv measured per gram of tissue at 35 mins by gamma-ray counting analysis; conditions: in vivo
Kidney [6] = test: Biodistribution in kidney of ddY mouse at 5.6 +/- 2.1 MBq, iv measured per gram of tissue at 45 mins by gamma-ray counting analysis; conditions: in vivo, 0.75 h
Mus musculus [7] = test: Biodistribution in small intestine wall of ddY mouse at 5.6 +/- 2.1 MBq, iv measured per gram of tissue at 30 mins by gamma-ray counting analysis; conditions: in vivo, 0.5 h
Mus musculus [8] = test: Biodistribution in stomach wall of ddY mouse at 5.6 +/- 2.1 MBq, iv measured per gram of tissue at 35 mins by gamma-ray counting analysis; conditions: in vivo
Mus musculus [9] = test: Biodistribution in small intestine wall of ddY mouse at 5.6 +/- 2.1 MBq, iv measured per gram of tissue at 60 mins by gamma-ray counting analysis; conditions: in vivo, 1 h
Mus musculus [10] = test: Biodistribution in large intestine wall of ddY mouse at 5.6 +/- 2.1 MBq, iv measured per gram of tissue at 35 mins by gamma-ray counting analysis; conditions: in vivo
Spleen = test: Biodistribution in spleen of ddY mouse at 5.6 +/- 2.1 MBq, iv measured per gram of tissue at 35 mins by gamma-ray counting analysis; conditions: in vivo
Mus musculus [11] = test: Biodistribution in small intestine wall of ddY mouse at 5.6 +/- 2.1 MBq, iv measured per gram of tissue at 15 mins by gamma-ray counting analysis; conditions: in vivo, 0.25 h
Mus musculus [12] = test: Biodistribution in urinary bladder of ddY mouse at 14.6 +/- 2.1 MBq, iv measured per gram of tissue at 27.5 mins by PET image analysis; conditions: in vivo
Mus musculus [13] = test: Biodistribution in large intestine wall of ddY mouse at 5.6 +/- 2.1 MBq, iv measured per gram of tissue at 45 mins by gamma-ray counting analysis; conditions: in vivo, 0.75 h
Kidney [14] = test: Biodistribution in kidney of ddY mouse at 14.6 +/- 2.1 MBq, iv measured per gram of tissue at 14 mins by PET image analysis; conditions: in vivo
Mus musculus [15] = test: Biodistribution in urinary bladder/urine of ddY mouse at 5.6 +/- 2.1 MBq, iv measured per gram of tissue at 60 mins by gamma-ray counting analysis; conditions: in vivo, 1 h
Mus musculus [16] = test: Biodistribution in stomach wall of ddY mouse at 5.6 +/- 2.1 MBq, iv measured per gram of tissue at 90 mins by gamma-ray counting analysis; conditions: in vivo, 1.5 h
Mus musculus [17] = test: Biodistribution in remaining body parts of ddY mouse at 5.6 +/- 2.1 MBq, iv measured per gram of tissue at 30 mins by gamma-ray counting analysis; conditions: in vivo, 0.5 h
Liver [18] = test: Biodistribution in liver of ddY mouse at 5.6 +/- 2.1 MBq, iv measured per gram of tissue at 45 mins by gamma-ray counting analysis; conditions: in vivo, 0.75 h
Pancreas [19] = test: Biodistribution in pancreas of ddY mouse at 5.6 +/- 2.1 MBq, iv measured per gram of tissue at 90 mins by gamma-ray counting analysis; conditions: in vivo, 1.5 h
Mus musculus [20] = test: Biodistribution in remaining body parts of ddY mouse at 5.6 +/- 2.1 MBq, iv measured per gram of tissue at 45 mins by gamma-ray counting analysis; conditions: in vivo, 0.75 h
Liver [21] = test: Metabolic stability in liver of mouse at 5 +/- 2.3 MBq/kg, iv measured until 30 to 60 mins by HPLC analysis in presence of MATE1 inhibitor pyrimethamine; conditions: in vivo
Pancreas [22] = test: Biodistribution in pancreas of ddY mouse at 5.6 +/- 2.1 MBq, iv measured per gram of tissue at 35 mins by gamma-ray counting analysis; conditions: in vivo
Mus musculus [23] = test: Biodistribution in remaining body parts of ddY mouse at 14.6 +/- 2.1 MBq, iv measured per gram of tissue at 14 mins by PET image analysis; conditions: in vivo
Lung [24] = test: Biodistribution in lung of ddY mouse at 5.6 +/- 2.1 MBq, iv measured per gram of tissue at 45 mins by gamma-ray counting analysis; conditions: in vivo, 0.75 h
Mus musculus [25] = test: Biodistribution in heart wall of ddY mouse at 5.6 +/- 2.1 MBq, iv measured per gram of tissue at 90 mins by gamma-ray counting analysis; conditions: in vivo, 1.5 h
Mus musculus [26] = test: Biodistribution in urinary bladder/urine of ddY mouse at 5.6 +/- 2.1 MBq, iv measured per gram of tissue at 30 mins by gamma-ray counting analysis; conditions: in vivo, 0.5 h
Mus musculus [27] = test: Biodistribution in stomach wall of ddY mouse at 5.6 +/- 2.1 MBq, iv measured per gram of tissue at 60 mins by gamma-ray counting analysis; conditions: in vivo, 1 h
Lung [28] = test: Biodistribution in lung of ddY mouse at 5.6 +/- 2.1 MBq, iv measured per gram of tissue at 60 mins by gamma-ray counting analysis; conditions: in vivo, 1 h
Mus musculus [29] = test: Biodistribution in remaining body parts of ddY mouse at 5.6 +/- 2.1 MBq, iv measured per gram of tissue at 15 mins by gamma-ray counting analysis; conditions: in vivo, 0.25 h
Mus musculus [30] = test: Biodistribution in remaining body parts of ddY mouse at 5.6 +/- 2.1 MBq, iv measured per gram of tissue at 90 mins by gamma-ray counting analysis; conditions: in vivo, 1.5 h
Liver [31] = test: Biodistribution in liver of ddY mouse at 5.6 +/- 2.1 MBq, iv measured per gram of tissue at 30 mins by gamma-ray counting analysis; conditions: in vivo, 0.5 h
Mus musculus [32] = test: Biodistribution in urinary bladder/urine of ddY mouse at 5.6 +/- 2.1 MBq, iv measured per gram of tissue at 90 mins by gamma-ray counting analysis; conditions: in vivo, 1.5 h
Kidney [33] = test: Biodistribution in kidney of ddY mouse at 5.6 +/- 2.1 MBq, iv measured per gram of tissue at 60 mins by gamma-ray counting analysis; conditions: in vivo, 1 h
Lung [34] = test: Biodistribution in lung of ddY mouse at 5.6 +/- 2.1 MBq, iv measured per gram of tissue at 90 mins by gamma-ray counting analysis; conditions: in vivo, 1.5 h
Mus musculus [35] = test: Biodistribution in heart wall of ddY mouse at 5.6 +/- 2.1 MBq, iv measured per gram of tissue at 30 mins by gamma-ray counting analysis; conditions: in vivo, 0.5 h
Liver [36] = test: Biodistribution in liver of ddY mouse at 5.6 +/- 2.1 MBq, iv measured per gram of tissue at 90 mins by gamma-ray counting analysis; conditions: in vivo, 1.5 h
Pancreas [37] = test: Biodistribution in pancreas of ddY mouse at 5.6 +/- 2.1 MBq, iv measured per gram of tissue at 45 mins by gamma-ray counting analysis; conditions: in vivo, 0.75 h

CN([11CH3])C(=N)NC(=N)N was tested, and the Drug uptake (Lung [1]) was 0.119 %ID, the Drug uptake (Kidney [2]) was 1.111 %ID and the Drug uptake (Mus musculus [3]) was 0.659 %ID. It also gave a Drug uptake (Mus musculus [4]) of 0.102 %ID, a Drug uptake (Liver [5]) of 1.478 %ID and a Drug uptake (Kidney [6]) of 0.165 %ID. It also gave a Drug uptake (Mus musculus [7]) of 3.165 %ID, a Drug uptake (Mus musculus [8]) of 0.091 %ID and a Drug uptake (Mus musculus [9]) of 2.543 %ID. It also gave a Drug uptake (Mus musculus [10]) of 0.342 %ID, a Drug uptake (Spleen) of 0.145 %ID and a Drug uptake (Mus musculus [11]) of 3.409 %ID. The Drug uptake (Mus musculus [12]) was 66.041 %ID, the Drug uptake (Mus musculus [13]) was 0.208 %ID and the Drug uptake (Kidney [14]) was 4.906 %ID. For the same compound, the Drug uptake (Mus musculus [15]) was 69.767 %ID, the Drug uptake (Mus musculus [16]) was 0.14 %ID and the Drug uptake (Mus musculus [17]) was 18.728 %ID. It also gave a Drug uptake (Liver [18]) of 0.827 %ID, a Drug uptake (Pancreas [19]) of 0.339 %ID and a Drug uptake (Mus musculus [20]) of 17.28 %ID. The Stability (Liver [21]) was “Stable”, the Drug uptake (Pancreas [22]) was 0.196 %ID and the Drug uptake (Mus musculus [23]) was 36.878 %ID. It also gave a Drug uptake (Lung [24]) of 0.135 %ID, a Drug uptake (Mus musculus [25]) of 0.041 %ID and a Drug uptake (Mus musculus [26]) of 73.314 %ID. For the same compound, the Drug uptake (Mus musculus [27]) was 0.169 %ID, the Drug uptake (Lung [28]) was 0.136 %ID and the Drug uptake (Mus musculus [29]) was 54.581 %ID. The Drug uptake (Mus musculus [30]) was 36.827 %ID, the Drug uptake (Liver [31]) was 2.319 %ID and the Drug uptake (Mus musculus [32]) was 59.056 %ID. It also gave a Drug uptake (Kidney [33]) of 1.068 %ID, a Drug uptake (Lung [34]) of 0.128 %ID and a Drug uptake (Mus musculus [35]) of 0.044 %ID. It also gave a Drug uptake (Liver [36]) of 1.288 %ID and a Drug uptake (Pancreas [37]) of 0.117 %ID.
